Tests used:
[1] = biological target: Non-receptor tyrosine-protein kinase TYK2 (Homo sapiens, UniProt P29597)
[2] = biological target: Tyrosine-protein kinase JAK2 (Homo sapiens, UniProt O60674)
[3] = biological target: T1, Tyrosine-protein kinase JAK3 (Homo sapiens, UniProt P52333)
T1 sequence (P52333 whole entry): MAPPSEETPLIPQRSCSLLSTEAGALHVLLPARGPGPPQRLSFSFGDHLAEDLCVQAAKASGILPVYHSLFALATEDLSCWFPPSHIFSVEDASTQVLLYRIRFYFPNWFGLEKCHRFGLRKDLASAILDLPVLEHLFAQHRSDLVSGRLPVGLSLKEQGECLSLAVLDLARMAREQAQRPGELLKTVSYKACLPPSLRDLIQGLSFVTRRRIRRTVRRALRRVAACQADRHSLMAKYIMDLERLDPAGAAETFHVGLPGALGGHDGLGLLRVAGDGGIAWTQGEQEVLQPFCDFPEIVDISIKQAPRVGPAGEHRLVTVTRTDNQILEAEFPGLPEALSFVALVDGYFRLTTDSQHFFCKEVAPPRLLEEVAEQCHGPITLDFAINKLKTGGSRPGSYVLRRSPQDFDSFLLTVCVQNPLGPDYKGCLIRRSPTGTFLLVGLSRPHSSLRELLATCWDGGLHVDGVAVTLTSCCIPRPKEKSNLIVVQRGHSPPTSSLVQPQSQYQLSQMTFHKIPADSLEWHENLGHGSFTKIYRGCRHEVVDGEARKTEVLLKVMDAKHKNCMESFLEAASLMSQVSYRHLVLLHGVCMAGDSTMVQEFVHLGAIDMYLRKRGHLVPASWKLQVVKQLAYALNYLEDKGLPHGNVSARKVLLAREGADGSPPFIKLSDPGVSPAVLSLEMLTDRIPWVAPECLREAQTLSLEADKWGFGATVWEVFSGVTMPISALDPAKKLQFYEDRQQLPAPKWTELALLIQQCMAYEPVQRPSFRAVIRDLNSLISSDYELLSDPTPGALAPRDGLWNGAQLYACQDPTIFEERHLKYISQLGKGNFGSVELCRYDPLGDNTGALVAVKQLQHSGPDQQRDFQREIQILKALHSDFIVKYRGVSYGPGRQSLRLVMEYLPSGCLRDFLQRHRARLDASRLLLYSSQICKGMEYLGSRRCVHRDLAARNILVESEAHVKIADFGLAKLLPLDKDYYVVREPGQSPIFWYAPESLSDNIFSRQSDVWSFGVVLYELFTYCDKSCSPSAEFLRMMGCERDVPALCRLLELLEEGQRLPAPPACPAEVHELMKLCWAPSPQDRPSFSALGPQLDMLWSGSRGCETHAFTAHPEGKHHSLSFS

Non-receptor tyrosine-protein kinase TYK2, sequence (P29597 whole entry): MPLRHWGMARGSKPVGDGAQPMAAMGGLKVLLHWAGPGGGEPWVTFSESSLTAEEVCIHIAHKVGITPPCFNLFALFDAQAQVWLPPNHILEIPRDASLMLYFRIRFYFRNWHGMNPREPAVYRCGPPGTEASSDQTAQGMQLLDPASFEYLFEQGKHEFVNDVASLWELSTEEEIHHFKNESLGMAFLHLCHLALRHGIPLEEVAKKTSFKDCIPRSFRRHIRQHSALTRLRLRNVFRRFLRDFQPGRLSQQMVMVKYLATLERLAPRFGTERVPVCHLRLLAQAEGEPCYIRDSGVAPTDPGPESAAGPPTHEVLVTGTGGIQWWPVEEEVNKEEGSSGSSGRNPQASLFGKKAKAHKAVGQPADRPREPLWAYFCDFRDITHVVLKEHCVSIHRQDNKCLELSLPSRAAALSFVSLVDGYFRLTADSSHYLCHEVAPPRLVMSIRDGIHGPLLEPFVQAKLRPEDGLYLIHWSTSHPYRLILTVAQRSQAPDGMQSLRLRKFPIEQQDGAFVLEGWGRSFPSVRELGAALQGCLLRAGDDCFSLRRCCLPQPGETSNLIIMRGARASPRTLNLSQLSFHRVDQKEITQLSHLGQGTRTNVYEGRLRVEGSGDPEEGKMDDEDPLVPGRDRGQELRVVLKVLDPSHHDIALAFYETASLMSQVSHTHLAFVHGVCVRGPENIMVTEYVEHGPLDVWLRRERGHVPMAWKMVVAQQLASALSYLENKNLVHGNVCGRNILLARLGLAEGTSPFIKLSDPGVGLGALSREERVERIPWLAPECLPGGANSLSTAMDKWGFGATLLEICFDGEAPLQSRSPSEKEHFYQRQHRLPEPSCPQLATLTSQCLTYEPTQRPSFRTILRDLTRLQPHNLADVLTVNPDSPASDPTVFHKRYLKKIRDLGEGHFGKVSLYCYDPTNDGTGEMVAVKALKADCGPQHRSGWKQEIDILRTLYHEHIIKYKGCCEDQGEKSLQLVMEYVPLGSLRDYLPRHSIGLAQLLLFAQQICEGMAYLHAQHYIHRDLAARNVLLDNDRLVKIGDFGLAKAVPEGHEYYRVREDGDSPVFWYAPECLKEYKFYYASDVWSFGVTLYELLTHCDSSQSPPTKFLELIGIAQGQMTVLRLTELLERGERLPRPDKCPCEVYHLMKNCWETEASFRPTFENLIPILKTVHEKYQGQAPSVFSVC
Tyrosine-protein kinase JAK2, sequence (O60674 whole entry): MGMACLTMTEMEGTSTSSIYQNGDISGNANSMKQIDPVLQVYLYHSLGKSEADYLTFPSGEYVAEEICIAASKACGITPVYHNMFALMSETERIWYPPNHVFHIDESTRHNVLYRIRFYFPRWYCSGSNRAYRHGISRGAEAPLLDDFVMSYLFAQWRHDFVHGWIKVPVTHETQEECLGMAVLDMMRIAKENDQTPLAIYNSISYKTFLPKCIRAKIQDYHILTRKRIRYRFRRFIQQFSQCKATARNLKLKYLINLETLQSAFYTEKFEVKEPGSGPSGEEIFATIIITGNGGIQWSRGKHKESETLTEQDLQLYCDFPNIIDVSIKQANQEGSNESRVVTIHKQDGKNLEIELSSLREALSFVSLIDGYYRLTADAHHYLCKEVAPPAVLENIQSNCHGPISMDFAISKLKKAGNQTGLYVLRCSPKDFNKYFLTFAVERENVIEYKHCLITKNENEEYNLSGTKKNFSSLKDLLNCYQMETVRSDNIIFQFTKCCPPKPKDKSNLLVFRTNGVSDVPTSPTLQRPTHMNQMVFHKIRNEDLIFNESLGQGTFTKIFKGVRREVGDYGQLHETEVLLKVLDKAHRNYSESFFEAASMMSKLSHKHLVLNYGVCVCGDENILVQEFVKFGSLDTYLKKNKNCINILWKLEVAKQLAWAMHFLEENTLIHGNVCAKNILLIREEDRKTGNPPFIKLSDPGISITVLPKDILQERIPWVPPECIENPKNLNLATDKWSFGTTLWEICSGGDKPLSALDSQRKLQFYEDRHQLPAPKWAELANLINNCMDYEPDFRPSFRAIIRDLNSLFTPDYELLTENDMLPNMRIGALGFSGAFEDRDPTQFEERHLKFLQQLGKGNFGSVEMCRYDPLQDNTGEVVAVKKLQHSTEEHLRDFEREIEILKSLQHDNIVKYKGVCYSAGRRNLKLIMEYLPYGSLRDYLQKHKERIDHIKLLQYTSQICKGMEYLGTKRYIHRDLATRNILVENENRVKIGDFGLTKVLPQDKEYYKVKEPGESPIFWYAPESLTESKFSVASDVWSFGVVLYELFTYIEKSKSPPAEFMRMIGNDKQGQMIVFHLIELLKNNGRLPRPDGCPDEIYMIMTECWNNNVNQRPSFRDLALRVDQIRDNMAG

## C=CC(=O)N1[C@@H]2CC[C@H]1C[C@H](Oc1cc(-c3ccc(O)cc3)cn3cncc13)C2 [US10851102, Example 10]
[1]
  Ki: > 100 nM
[2]
  Ki: > 100 nM
[3]
  Ki: < 0.1 nM
